{
  "source": "ChEMBL document CHEMBL1132460",
  "about": "“Affinity and selectivity of matrix metalloproteinase inhibitors: a chemometrical study from the perspective of ligands and proteins” (J Med Chem, 1999)",
  "key": {"[1]": {"biological_target": "Neutrophil collagenase (Homo sapiens, UniProt P22894)", "sequence (P22894 whole entry)": "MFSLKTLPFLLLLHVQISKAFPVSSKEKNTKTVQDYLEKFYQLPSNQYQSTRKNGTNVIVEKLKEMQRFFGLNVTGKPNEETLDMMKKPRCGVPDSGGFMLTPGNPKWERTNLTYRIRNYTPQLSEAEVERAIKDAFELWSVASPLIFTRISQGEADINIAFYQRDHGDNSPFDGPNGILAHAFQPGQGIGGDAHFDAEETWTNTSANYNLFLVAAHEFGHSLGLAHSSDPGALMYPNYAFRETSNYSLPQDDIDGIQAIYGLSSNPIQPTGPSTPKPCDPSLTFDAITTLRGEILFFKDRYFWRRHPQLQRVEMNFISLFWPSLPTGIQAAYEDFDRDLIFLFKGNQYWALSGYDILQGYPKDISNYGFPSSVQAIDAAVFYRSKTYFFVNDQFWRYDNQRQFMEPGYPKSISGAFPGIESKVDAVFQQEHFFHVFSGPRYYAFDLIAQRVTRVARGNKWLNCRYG", "experiment": "Inhibitory concentration against human matrix metalloprotease-8 (human neutrophil collagenase, MMP-8)"}, "[2]": {"experiment": "Affinity ratio of IC50 of MMP-8 to IC50 of MMP-3"}, "[3]": {"biological_target": "Stromelysin-1 (Homo sapiens, UniProt P08254)", "sequence (P08254 whole entry)": "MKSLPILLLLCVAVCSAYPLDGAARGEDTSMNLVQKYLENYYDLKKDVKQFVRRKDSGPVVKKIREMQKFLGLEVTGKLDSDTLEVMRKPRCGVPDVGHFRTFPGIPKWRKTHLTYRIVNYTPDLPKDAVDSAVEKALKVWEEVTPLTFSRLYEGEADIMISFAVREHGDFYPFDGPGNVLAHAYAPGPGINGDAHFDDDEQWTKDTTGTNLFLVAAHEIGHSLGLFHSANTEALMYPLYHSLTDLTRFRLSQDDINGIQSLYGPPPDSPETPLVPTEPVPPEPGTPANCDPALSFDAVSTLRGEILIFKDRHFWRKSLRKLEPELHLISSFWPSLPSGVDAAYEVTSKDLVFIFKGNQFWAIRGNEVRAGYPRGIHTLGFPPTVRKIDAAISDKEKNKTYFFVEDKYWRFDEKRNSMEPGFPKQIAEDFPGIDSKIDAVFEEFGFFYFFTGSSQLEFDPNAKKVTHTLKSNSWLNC", "experiment": "Inhibitory concentration against human matrix metalloprotease-3 (MMP-3)"}},
  "data": [
    {"compound": "COc1ccc(S(=O)(=O)N2Cc3cc(NC(=O)[C@H](C)N)ccc3CC2C(=O)O)cc1", "note": "(some centres undefined)", "values": [
      {"measurement": "IC50", "setting": "[1]", "value": 2000, "unit": "nM"},
      {"measurement": "Selectivity", "setting": "[2]", "value": 0.7},
      {"measurement": "IC50", "setting": "[3]", "value": 10000, "unit": "nM l-1"}
    ]},
    {"compound": "COc1ccc(S(=O)(=O)N2Cc3cc(N)ccc3CC2C(=O)O)cc1", "note": "(centres undefined)", "values": [
      {"measurement": "IC50", "setting": "[1]", "value": 2000, "unit": "nM"},
      {"measurement": "Selectivity", "setting": "[2]", "value": 0.7},
      {"measurement": "IC50", "setting": "[3]", "value": 10000, "unit": "nM l-1"}
    ]},
    {"compound": "COc1ccc(S(=O)(=O)N2Cc3cc(O)ccc3CC2C(=O)O)cc1", "note": "(centres undefined)", "values": [
      {"measurement": "IC50", "setting": "[1]", "value": 3000, "unit": "nM"},
      {"measurement": "Selectivity", "setting": "[2]", "value": 0.52},
      {"measurement": "IC50", "setting": "[3]", "value": 10000, "unit": "nM l-1"}
    ]}
  ]
}
